{"source": "patent US12704493B2", "about": "(priority 2020, dated 2026)", "key": {"[1]": {"system": "electroactive microorganisms"}, "[2]": {"system": "electroactive microorganisms of the biosensor anode"}}}
{"smiles": "O=S(=O)([O-])[O-].[Cu+2]", "note": "[Cu, CuSO4]", "values": [{"measurement": "change of open circuit voltage with each spike", "setting": "[1]", "value": "reduced"}]}
{"smiles": "C=O", "note": "[formaldehyde]", "values": [{"measurement": "decrease in the estimated open circuit voltage", "setting": "[2]", "value": "~90", "unit": "%"}]}
